Measured values published in PubChem BioAssay (NCI).
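Each compound was tested at five concentrations against cells in 96-well plates for 48 hours. GI50: concentration for 50% inhibition of growth. TGI: total growth inhibition.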

Assays:
Test in all cases: NCI-60 cell line screen, 48 h
[1] = test system: NCI-H226 lung
[2] = test system: SNB-75 CNS
[3] = test system: A549 NSCLC
[4] = test system: UO-31 renal
[5] = test system: ACHN renal
[6] = test system: CAKI-1 renal
[7] = test system: OVCAR-5 ovarian
[8] = test system: K-562 leukemia
[9] = test system: RPMI-8226 leukemia
[10] = test system: A498 renal

C=CC1=C(C)C2=NC1=CC1=NC(=CC3=C(C)C4=C(O)[C@H](C(=O)OC)C(=C5NC(=C2)[C@@H](C)[C@@H]5CCC(=O)O)C4=N3)C(CC)=C1C
TGI [1]: > 100 µM | TGI [2]: 8.25 µM | TGI [3]: > 43.9 µM | TGI [4]: 11.7 µM | TGI [5]: 7.21 µM | TGI [6]: > 100 µM | TGI [7]: > 23.7 µM | TGI [8]: 6.24 µM

COc1ccc2c(NCCCCCCNc3c4ccccc4nc4cc(OC)ccc34)c3ccccc3nc2c1
TGI [9]: 0.717 µM | TGI [1]: 3.49 µM | TGI [2]: 1.74 µM | TGI [3]: 11.9 µM | TGI [4]: 37.5 µM | TGI [5]: 1.01 µM | TGI [6]: 3.39 µM | TGI [7]: 1.89 µM | TGI [8]: 0.304 µM

Cc1c2ccncc2c(C)c2c1[nH]c1ccc(O)c(OCC(F)(F)F)c12
TGI [10]: 37.5 µM | TGI [9]: 5.95 µM | TGI [1]: 20.1 µM | TGI [2]: 21.1 µM | TGI [3]: 16.5 µM | TGI [4]: 19.9 µM | TGI [6]: 19.6 µM | TGI [7]: 25.8 µM | TGI [8]: 33.9 µM

O=C(Cl)C1=C(c2ccccc2)C1c1ccccc1 (stereo not drawn)
TGI [10]: > 100 µM | TGI [9]: > 100 µM | TGI [1]: > 100 µM | TGI [2]: > 100 µM | TGI [3]: > 100 µM | TGI [5]: > 100 µM | TGI [6]: > 100 µM | TGI [7]: > 100 µM | TGI [8]: > 100 µM

CCOC(=O)c1c(SCCN2CCOCC2)n(-c2ccccc2)c(=S)n(-c2ccccc2)c1=O
TGI [9]: 94.1 µM | TGI [1]: > 100 µM | TGI [2]: > 100 µM | TGI [3]: > 100 µM | TGI [4]: > 100 µM | TGI [5]: > 100 µM | TGI [7]: > 100 µM | TGI [8]: 38 µM

O=C(NCCN1CCNCC1)c1ccc(Nc2nc3ccccc3c3occc23)cc1
GI50 [10]: 16.2 µM | TGI [10]: 36.3 µM | GI50 [9]: 18.7 µM | TGI [9]: 49.1 µM | GI50 [2]: 7.06 µM | TGI [2]: 25.9 µM | GI50 [3]: 17.5 µM | TGI [3]: 36.8 µM | GI50 [4]: 11.1 µM | TGI [4]: 27.9 µM | GI50 [5]: 20.1 µM | TGI [5]: 36 µM | GI50 [6]: 15.6 µM | TGI [6]: 32.3 µM | GI50 [7]: 15 µM | TGI [7]: 29.5 µM | GI50 [8]: 14.4 µM | TGI [8]: 40.1 µM

O=C(/C=C/c1cccc(O)c1)c1cccc(-n2cc(-c3ccc4ccccc4c3)[nH]c2=O)c1
GI50 [9]: 1.67 µM | TGI [9]: 6.91 µM | GI50 [1]: 2.43 µM | TGI [1]: 8.91 µM | GI50 [2]: 1.88 µM | TGI [2]: 5.93 µM | GI50 [3]: 3.38 µM | TGI [3]: 12.7 µM | GI50 [4]: 1.26 µM | TGI [4]: 2.64 µM | GI50 [5]: 1.57 µM | TGI [5]: 3.08 µM | GI50 [7]: 1.89 µM | TGI [7]: 3.6 µM | GI50 [8]: 1.43 µM | TGI [8]: 4.88 µM

COc1c(O)c(OC)c2oc(-c3ccc(O)cc3)c(OC)c(=O)c2c1O
TGI [10]: > 100 µM | TGI [9]: > 100 µM | TGI [1]: > 100 µM | TGI [3]: > 100 µM | TGI [4]: > 100 µM | TGI [5]: > 100 µM | TGI [6]: > 100 µM | TGI [7]: > 100 µM | TGI [8]: > 100 µM

COC(=O)C1C(=O)N(CCc2c[nH]c3ccccc23)C[C@@H]2CCC(=O)C[C@H]12 (stereo partly drawn)
TGI [10]: > 100 µM | TGI [9]: > 100 µM | TGI [2]: > 100 µM | TGI [3]: > 100 µM | TGI [4]: > 100 µM | TGI [6]: > 100 µM | TGI [8]: > 100 µM

c1cnn2ncc(-c3ccnc(Nc4ccc5c(c4)OCCO5)n3)c2c1
GI50 [10]: 0.0492 µM | TGI [10]: 0.128 µM | GI50 [9]: 0.0783 µM | TGI [9]: 0.388 µM | GI50 [2]: 0.0671 µM | TGI [2]: 0.173 µM | GI50 [3]: 0.0753 µM | TGI [3]: 3.07 µM | GI50 [4]: 0.0917 µM | TGI [4]: > 25 µM | GI50 [5]: 0.0549 µM | TGI [5]: > 25 µM | GI50 [6]: 0.0773 µM | TGI [6]: > 8.78 µM | GI50 [7]: 0.0866 µM | TGI [7]: > 25 µM | GI50 [8]: 0.285 µM | TGI [8]: > 25 µM

Cc1cccc(/C(Br)=C2/OC(=O)c3ccccc32)c1
TGI [10]: > 100 µM | TGI [9]: > 100 µM | TGI [2]: > 100 µM | TGI [3]: > 100 µM | TGI [5]: > 100 µM | TGI [6]: > 100 µM | TGI [7]: > 100 µM

C=C1C2Oc3ccccc3C1N(c1ccccc1)O2 (stereo not drawn)
TGI [9]: > 100 µM | TGI [1]: > 100 µM | TGI [2]: > 100 µM | TGI [3]: > 100 µM | TGI [4]: > 100 µM | TGI [5]: > 100 µM | TGI [6]: > 100 µM | TGI [7]: > 100 µM | TGI [8]: > 100 µM

COc1ccccc1NC(=O)/C(=C/c1ccccc1)C(C)=O
TGI [9]: > 100 µM | TGI [1]: > 100 µM | TGI [3]: > 100 µM | TGI [4]: > 100 µM | TGI [5]: > 100 µM | TGI [6]: > 100 µM | TGI [7]: > 100 µM | TGI [8]: > 100 µM

CC(C)(C)OC(=O)NC1CCCC1=O (stereo not drawn)
TGI [10]: > 100 µM | TGI [1]: > 100 µM | TGI [2]: > 100 µM | TGI [3]: > 100 µM | TGI [4]: > 100 µM | TGI [5]: > 100 µM | TGI [6]: > 100 µM | TGI [7]: > 100 µM | TGI [8]: > 100 µM

CC1c2ccccc2N=C2SC(=S)N3CCN=C3N21 (stereo not drawn)
GI50 [9]: > 100 µM | TGI [9]: > 100 µM | GI50 [1]: > 100 µM | TGI [1]: > 100 µM | GI50 [2]: > 100 µM | TGI [2]: > 100 µM | GI50 [3]: > 100 µM | TGI [3]: > 100 µM | GI50 [4]: > 100 µM | TGI [4]: > 100 µM | GI50 [5]: > 100 µM | TGI [5]: > 100 µM | GI50 [6]: > 100 µM | TGI [6]: > 100 µM | GI50 [7]: > 100 µM | TGI [7]: > 100 µM | GI50 [8]: > 100 µM | TGI [8]: > 100 µM

O=S1CSSC1
TGI [10]: > 100 µM | TGI [1]: 71.7 µM | TGI [2]: 92.6 µM | TGI [3]: > 100 µM | TGI [4]: 34.7 µM | TGI [5]: 94.9 µM | TGI [6]: 77.4 µM | TGI [7]: 36.7 µM | TGI [8]: 80.7 µM

c1ccc2[nH]c(CNc3ccc(C4C[Se]N=N4)cc3)nc2c1 (stereo not drawn)
TGI [10]: > 100 µM | TGI [9]: 81.3 µM | TGI [2]: > 100 µM | TGI [3]: > 100 µM | TGI [4]: > 100 µM | TGI [5]: > 100 µM | TGI [6]: > 100 µM | TGI [7]: > 100 µM | TGI [8]: > 100 µM

Cc1nc(-c2cccnc2)sc1C(=O)/C=C/c1cccc([N+](=O)[O-])c1
TGI [10]: > 100 µM | TGI [9]: > 100 µM | TGI [1]: > 100 µM | TGI [2]: > 100 µM | TGI [3]: > 100 µM | TGI [4]: > 100 µM | TGI [6]: > 100 µM | TGI [7]: > 100 µM | TGI [8]: > 100 µM

CC(C)[O-].CC(C)[O-].O=c1cccccc1[O-].O=c1cccccc1[O-].[Ti+4]
TGI [9]: > 100 µM | TGI [1]: > 100 µM | TGI [2]: > 100 µM | TGI [3]: > 100 µM | TGI [4]: > 100 µM | TGI [5]: > 100 µM | TGI [6]: > 100 µM | TGI [7]: > 100 µM | TGI [8]: > 100 µM

O=C1C2=C(CCC2)Nc2cccc3ncn1c23
TGI [9]: > 100 µM | TGI [3]: > 100 µM | TGI [4]: > 100 µM | TGI [5]: > 100 µM | TGI [7]: > 100 µM | TGI [8]: > 100 µM

CC(=O)n1c(=O)c2cc3c(=O)n(-c4cccc(C#N)c4)c(=O)c3cc2c1=O
TGI [10]: > 100 µM | TGI [1]: > 100 µM | TGI [2]: 54.6 µM | TGI [3]: > 100 µM | TGI [4]: > 100 µM | TGI [5]: > 100 µM | TGI [6]: > 100 µM | TGI [7]: > 100 µM | TGI [8]: > 100 µM
